Experimental data published in patent publication US8197833B2, “Liquid concentrate for preserving cosmetics” (Air Liquide Sante (International), priority 1999, dated 2012).

Columns and labels:
Type in all cases: physicochemical
[1] = Compatibility with cosmetics additives (absence of precipitates and/or severe discolorations); conditions: 18.75% water
Protocol: (§1) To 100 parts by weight of a preparation consisting of 18.75% by weight of K sorbate, 31.25% by weight of phenoxyethanol, 31.25% by weight of benzyl alcohol and 18.75% by weight of demineralized water were added, in individual experiments, up to 4 parts by weight of a number of cosmetics additives, and the compatibility was tested (test for absence of precipitates and/or severe discolorations). […] The above-mentioned preparation was incompatible with the antimicrobial active ingredients Vantocil IB (polyhexamethylene biguanide), bronopol and dibromodicyanobutane since in each case the addition of these active ingredients and storage led to severe discoloration of the solution.
as §1, with “of 15%” for “of 18.75%”, “sorbate, 30%” for “sorbate, 31.25%”, “of Na benzoate, 5%” for “of phenoxyethanol, 31.25%”, “of phenoxyethanol” for “of benzyl alcohol”, “and 50%” for “and 18.75%”, “The abovementioned” for “The above-mentioned”
A preparation consisting of 18.75% by weight of K sorbate, 28.75% by weight of benzyl alcohol, 28.75% by weight of phenoxyethanol, 18.75% by weight of demineralized water and 5% by weight of cosmetics additive was prepared.

[2] = as above; conditions: Example 6B: up to 4 parts additive to 100 parts of 15% K sorbate, 30% Na benzoate, 5% phenoxyethanol, 50% water
[3] = Colour stability, Hazen colour number; conditions: addition to liquid concentrates, Examples 5D-5F
Protocol: The Hazen colour number is the number of mg of platinum [as potassium hexachloroplatinate (IV) containing cobalt (II) chloride hexahydrate in a ratio of 1.246:1 dissolved in 1000 ml of aqueous hydrochloric acid] which has virtually the same colour as the sample when the path length is the same.
Improvement in the Colour Stability of the Liquid Concentrates According to the Invention

[4] = Example 6C: 5% additive in 18.75% K sorbate, 28.75% benzyl alcohol, 28.75% phenoxyethanol
[5] = Example 6A: up to 4 parts additive to 100 parts of 18.75% K sorbate, 31.25% phenoxyethanol, 31.25% benzyl alcohol

COC(=O)c1ccc(O)cc1 [methylparaben]
compatibility of additive with preparation [1, 4]: sufficiently compatible

CCCOC(=O)c1ccc(O)cc1 [propylparaben]
compatibility of additive with preparation [1, 4]: sufficiently compatible

O=C1O[C@H]([C@@H](O)CO)C(O)=C1O [ascorbic acid]
compatibility of additive with preparation [2]: sufficiently compatible | compatibility of additive with preparation [1, 5]: sufficiently compatible

COc1ccc(O)c(C(C)(C)C)c1 [3-tert-butyl-4-hydroxyanisole]
compatibility of additive with preparation [2]: sufficiently compatible | compatibility of additive with preparation [1, 5]: sufficiently compatible

Cl/C=C\C[N+]12CN3CN(CN(C3)C1)C2.[Cl-] [Dowicil 200]
compatibility of additive with preparation [1, 4]: sufficiently compatible

CCCCNC(=O)OCC#CI [iodopropynylbutyl carbamate]
compatibility of additive with preparation [2]: sufficiently compatible | compatibility of additive with preparation [1, 5]: sufficiently compatible

CC(C)(CO)[C@@H](O)C(=O)NCCCO [dexpanthenol]
compatibility of additive with preparation [2]: sufficiently compatible | compatibility of additive with preparation [1, 5]: sufficiently compatible

OCCc1ccccc1 [phenethyl alcohol]
compatibility of additive with preparation [2]: sufficiently compatible | compatibility of additive with preparation [1, 5]: sufficiently compatible

benzalkonium chloride
compatibility of additive with preparation [2]: sufficiently compatible | compatibility of additive with preparation [1, 5]: sufficiently compatible

O=C([O-])CC(O)(CC(=O)[O-])C(=O)[O-].[Na+].[Na+].[Na+] [sodium citrate]
effect of additive on colour stability [3]: significantly improves the colour stability

CCOC(=O)c1ccc(O)cc1 [ethylparaben]
compatibility of additive with preparation [2]: sufficiently compatible | compatibility of additive with preparation [1, 5]: sufficiently compatible

OCCCc1ccccc1 [3-phenyl-1-propanol]
compatibility of additive with preparation [2]: sufficiently compatible | compatibility of additive with preparation [1, 5]: sufficiently compatible

O=C([O-])C(O)c1ccccc1.[K+] (stereo not drawn) [potassium salt of mandelic acid]
compatibility of additive with preparation [2]: sufficiently compatible | compatibility of additive with preparation [1, 5]: sufficiently compatible

vitamin E
compatibility of additive with preparation [2]: sufficiently compatible | compatibility of additive with preparation [1, 5]: sufficiently compatible

CC1(C)C(=O)N(CO)C(=O)N1CO [Glydant XL 1000, 1,3-dimethylol-5,5-dimethylhydantoin]
compatibility of additive with preparation [2]: sufficiently compatible | compatibility of additive with preparation [1, 5]: sufficiently compatible

O=[N+]([O-])C(Br)(CO)CO [bronopol]
compatibility of additive with preparation [2]: incompatible | compatibility of additive with preparation [1, 5]: incompatible

CC(C)=CCCC(C)=CCCC(C)=CCO [farnesol]
compatibility of additive with preparation [2]: sufficiently compatible | compatibility of additive with preparation [1, 5]: sufficiently compatible

O=C1O[C@H]([C@@H](O)CO)C([O-])=C1O.[Na+] [sodium ascorbate]
compatibility of additive with preparation [2]: sufficiently compatible | compatibility of additive with preparation [1, 5]: sufficiently compatible

Cc1cc(C(C)(C)C)c(O)c(C(C)(C)C)c1 [2,6-di-tert-butyl-p-cresol]
compatibility of additive with preparation [2]: sufficiently compatible | compatibility of additive with preparation [1, 5]: sufficiently compatible

N#CCCC(Br)(C#N)CBr (stereo not drawn) [dibromodicyanobutane]
compatibility of additive with preparation [2]: incompatible | compatibility of additive with preparation [1, 5]: incompatible
